Residues, ends and D or L forms follow the SMILES beside them.

T1 sequence (P23975 whole entry): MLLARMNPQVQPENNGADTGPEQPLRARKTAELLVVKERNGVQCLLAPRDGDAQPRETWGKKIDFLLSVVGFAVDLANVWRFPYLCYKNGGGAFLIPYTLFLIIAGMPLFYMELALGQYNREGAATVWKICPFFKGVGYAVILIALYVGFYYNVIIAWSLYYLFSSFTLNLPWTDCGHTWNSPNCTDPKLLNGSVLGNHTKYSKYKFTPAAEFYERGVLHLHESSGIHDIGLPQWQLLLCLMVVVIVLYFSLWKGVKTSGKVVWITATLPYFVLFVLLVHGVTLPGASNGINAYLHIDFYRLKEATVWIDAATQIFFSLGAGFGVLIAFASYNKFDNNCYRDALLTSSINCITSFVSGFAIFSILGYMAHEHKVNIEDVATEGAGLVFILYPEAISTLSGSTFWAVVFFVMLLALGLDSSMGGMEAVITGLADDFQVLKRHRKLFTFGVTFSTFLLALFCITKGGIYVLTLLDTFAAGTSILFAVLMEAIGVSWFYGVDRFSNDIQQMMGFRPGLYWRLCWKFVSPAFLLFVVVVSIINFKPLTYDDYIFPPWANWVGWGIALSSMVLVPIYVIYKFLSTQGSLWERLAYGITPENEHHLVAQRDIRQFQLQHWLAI

The first experiment has as its target T1, human noradrenaline transporter (hNET) (Homo sapiens, UniProt P23975).
T1 construct: expressed in transfected cells; host or cells: COS-7 cells (ATCC), transient transfection with metafectene
Kind of experiment: biochemical. Format: binding.
Conditions: not given
As for YNGVCCGYYLCHPC [compound 212], the “Av IC50 Displacement of 3H-nisoxetine from hNET” value is −2.00.
Still for that read-out and setting: the figure for YNGVCCGYKLCRPC [compound 207] is −2.00.

The same experiment, now with this note: Av IC50 Displacement of 3H-nisoxetine from hNET.
The molecule `CC(C)C[C@H](NC(=O)CNC(=O)[C@H](CCCNC(=N)N)NC(=O)[C@@H](N)Cc1c[nH]c2ccccc12)C(=O)N[C@H]1CSSC[C@@H](C(N)=O)NC(=O)[C@H](C)NC(=O)[C@H](CCCNC(=N)N)NC(=O)[C@@H]2CSSC[C@H](NC1=O)C(=O)NCC(=O)N[C@@H](Cc1ccc(O)cc1)C(=O)N[C@@H](CCCCN)C(=O)N[C@@H](CC(C)C)C(=O)N2` [compound 78] had an IC50 of 275 nM.
The molecule `CC(C)C[C@@H]1NC(=O)[C@H](CCCCN)NC(=O)[C@H](Cc2ccc(O)cc2)NC(=O)CNC(=O)[C@@H]2CSSC[C@H](NC1=O)C(=O)N[C@@H](Cc1c[nH]cn1)C(=O)N1CCC[C@H]1C(=O)N[C@H](C(N)=O)CSSC[C@H](NC(=O)[C@@H](NC(=O)[C@H](CCCCN)NC(=O)[C@@H](N)CC(N)=O)C(C)C)C(=O)N2` [compound 122] (HELM PEPTIDE1{N.K.V.C.C.G.Y.K.L.C.H.P.C.[am]}$PEPTIDE1,PEPTIDE1,4:R3-13:R3|PEPTIDE1,PEPTIDE1,5:R3-10:R3$$$V2.0) gave an IC50 of 1320 nM.
On the same count and under the same terms, the figure for `CC(C)C[C@H](NC(=O)CNC(=O)[C@@H](N)CC(N)=O)C(=O)N[C@H]1CSSC[C@@H](C(N)=O)NC(=O)[C@@H]2CCCN2C(=O)[C@H](Cc2c[nH]cn2)NC(=O)[C@@H]2CSSC[C@H](NC1=O)C(=O)NCC(=O)N[C@@H](Cc1ccc(O)cc1)C(=O)N[C@@H](CCCCN)C(=O)N[C@@H](CC(C)C)C(=O)N2` [compound 97] is 501 nM.
The same measure, in the same setting: the figure for `CC(C)C[C@@H]1NC(=O)[C@H](CCCCN)NC(=O)[C@H](Cc2ccc(O)cc2)NC(=O)CNC(=O)[C@@H]2CSSC[C@H](NC1=O)C(=O)N[C@@H](Cc1c[nH]cn1)C(=O)N1CCC[C@H]1C(=O)N[C@H](C(N)=O)CSSC[C@H](NC(=O)[C@@H](NC(=O)CNC(=O)[C@@H](N)CC(=O)O)C(C)C)C(=O)N2` [compound 151] is 3550 nM; for `CC(C)C[C@@H]1NC(=O)[C@H](CCCCN)NC(=O)[C@H](Cc2ccc(O)cc2)NC(=O)CNC(=O)[C@@H]2CSSC[C@H](NC1=O)C(=O)N[C@@H](CCCNC(=N)N)C(=O)N1CCC[C@H]1C(=O)N[C@H](C(N)=O)CSSC[C@H](NC(=O)[C@@H](NC(=O)CNC(=O)[C@H](CC(N)=O)NC(=O)[C@@H](N)Cc1ccc(O)cc1)C(C)C)C(=O)N2` [compound 84] it is 302 nM.
The molecule `CC(C)C[C@@H]1NC(=O)[C@H](CCC(N)=O)NC(=O)[C@H](Cc2ccc(O)cc2)NC(=O)CNC(=O)[C@@H]2CSSC[C@H](NC1=O)C(=O)N[C@@H](Cc1c[nH]cn1)C(=O)N1CCC[C@H]1C(=O)N[C@H](C(N)=O)CSSC[C@H](NC(=O)[C@@H](NC(=O)CNC(=O)[C@@H](N)CC(N)=O)C(C)C)C(=O)N2` [compound 194] (HELM PEPTIDE1{N.G.V.C.C.G.Y.Q.L.C.H.P.C.[am]}$PEPTIDE1,PEPTIDE1,4:R3-13:R3|PEPTIDE1,PEPTIDE1,5:R3-10:R3$$$V2.0) gave a concentration for half-maximal inhibition (IC50) of 123000 nM.
`CC(C)C[C@@H]1NC(=O)[C@H](CCCCN)NC(=O)[C@H](Cc2ccc(O)cc2)NC(=O)CNC(=O)[C@@H]2CSSC[C@H](NC1=O)C(=O)N[C@@H](Cc1c[nH]cn1)C(=O)N[C@@H](Cc1ccc(O)cc1)C(=O)N[C@H](C(N)=O)CSSC[C@H](NC(=O)[C@@H](NC(=O)CNC(=O)[C@@H](N)CC(N)=O)C(C)C)C(=O)N2` [compound 165] gave an IC50 of 7080 nM.
Same read-out and setting: the figure for `CC(C)C[C@@H]1NC(=O)CNC(=O)[C@@H]2CSSC[C@H](NC(=O)[C@H](CC(C)C)NC(=O)[C@H](CCCCN)NC1=O)C(=O)N[C@@H](Cc1c[nH]cn1)C(=O)N1CCC[C@H]1C(=O)N[C@H](C(N)=O)CSSC[C@H](NC(=O)[C@@H](NC(=O)CNC(=O)[C@H](CC(N)=O)NC(=O)[C@@H](N)Cc1ccc(O)cc1)C(C)C)C(=O)N2` [compound 171] (HELM PEPTIDE1{Y.N.G.V.C.C.G.L.K.L.C.H.P.C.[am]}$PEPTIDE1,PEPTIDE1,5:R3-14:R3|PEPTIDE1,PEPTIDE1,6:R3-11:R3$$$V2.0) is 10700 nM.
Same read-out and setting: the figure for `CC(=O)N[C@@H](Cc1ccc(O)cc1)C(=O)N[C@@H](CC(N)=O)C(=O)NCC(=O)N[C@H](C(=O)N[C@H]1CSSC[C@@H](C(N)=O)NC(=O)[C@@H]2CCCN2C(=O)[C@H](Cc2c[nH]cn2)NC(=O)[C@@H]2CSSC[C@H](NC1=O)C(=O)NCC(=O)N[C@@H](Cc1ccc(O)cc1)C(=O)N[C@@H](CCCCN)C(=O)N[C@@H](CC(C)C)C(=O)N2)C(C)C` [compound 161] is 6170 nM; for `CC(C)C[C@@H]1NC(=O)[C@H](CCCCN)NC(=O)[C@H](Cc2ccc(O)cc2)NC(=O)CNC(=O)[C@@H]2CSSC[C@H](NC1=O)C(=O)N[C@@H](Cc1c[nH]cn1)C(=O)N1CCC[C@H]1C(=O)N[C@H](C(N)=O)CSSC[C@H](NC(=O)[C@@H](NC(=O)CNC(=O)[C@H](CC(N)=O)NC(=O)[C@@H](N)Cc1ccc(O)cc1)C(C)C)C(=O)N2` [compound 116] it is 1120 nM; for `CC(C)C[C@@H]1NC(=O)[C@H](CCCCN)NC(=O)[C@H](Cc2ccc(O)cc2)NC(=O)CNC(=O)[C@@H]2CSSC[C@H](NC1=O)C(=O)N[C@@H](Cc1c[nH]cn1)C(=O)N[C@@H](CCC(=O)O)C(=O)N[C@H](C(N)=O)CSSC[C@H](NC(=O)[C@@H](NC(=O)CNC(=O)[C@@H](N)CC(N)=O)C(C)C)C(=O)N2` [compound 159] (HELM PEPTIDE1{N.G.V.C.C.G.Y.K.L.C.H.E.C.[am]}$PEPTIDE1,PEPTIDE1,4:R3-13:R3|PEPTIDE1,PEPTIDE1,5:R3-10:R3$$$V2.0) it is 4900 nM.
As to `CC(C)C[C@@H]1NC(=O)[C@H](CCCCN)NC(=O)[C@H](Cc2ccc(O)cc2)NC(=O)CNC(=O)[C@@H]2CSSC[C@H](NC1=O)C(=O)N[C@@H](CCCNC(=N)N)C(=O)N[C@@H](C)C(=O)N[C@H](C(N)=O)CSSC[C@H](NC(=O)[C@@H](NC(=O)CNC(=O)[C@H](CC(N)=O)NC(=O)[C@@H](N)Cc1c[nH]c3ccccc13)C(C)C)C(=O)N2` [compound 69] (HELM PEPTIDE1{W.N.G.V.C.C.G.Y.K.L.C.R.A.C.[am]}$PEPTIDE1,PEPTIDE1,5:R3-14:R3|PEPTIDE1,PEPTIDE1,6:R3-11:R3$$$V2.0), the IC50 was 219 nM.
Same read-out and setting: the figure for `CC(C)C[C@@H]1NC(=O)[C@H](Cc2ccccc2)NC(=O)[C@H](Cc2ccc(O)cc2)NC(=O)CNC(=O)[C@@H]2CSSC[C@H](NC1=O)C(=O)N[C@@H](Cc1c[nH]cn1)C(=O)N1CCC[C@H]1C(=O)N[C@H](C(N)=O)CSSC[C@H](NC(=O)[C@@H](NC(=O)CNC(=O)[C@H](CC(N)=O)NC(=O)[C@@H](N)Cc1ccc(O)cc1)C(C)C)C(=O)N2` [compound 179] (HELM PEPTIDE1{Y.N.G.V.C.C.G.Y.F.L.C.H.P.C.[am]}$PEPTIDE1,PEPTIDE1,5:R3-14:R3|PEPTIDE1,PEPTIDE1,6:R3-11:R3$$$V2.0) is 25100 nM.
In turn, `CC(C)C[C@@H]1NC(=O)[C@H](CCCCN)NC(=O)[C@H](Cc2ccc(O)cc2)NC(=O)CNC(=O)[C@@H]2CSSC[C@H](NC1=O)C(=O)N[C@@H](Cc1c[nH]cn1)C(=O)N1CCC[C@H]1C(=O)N[C@H](C(N)=O)CSSC[C@H](NC(=O)[C@@H](NC(=O)[C@H](CC(=O)O)NC(=O)[C@@H](N)CC(N)=O)C(C)C)C(=O)N2` [compound 63] (HELM PEPTIDE1{N.D.V.C.C.G.Y.K.L.C.H.P.C.[am]}$PEPTIDE1,PEPTIDE1,4:R3-13:R3|PEPTIDE1,PEPTIDE1,5:R3-10:R3$$$V2.0) gave an IC50 of 191 nM.
As for `CC(C)C[C@@H]1NC(=O)[C@H](CCCCN)NC(=O)[C@H](Cc2ccc(O)cc2)NC(=O)CNC(=O)[C@@H]2CSSC[C@H](NC1=O)C(=O)N[C@@H](Cc1c[nH]cn1)C(=O)N[C@@H](C)C(=O)N[C@H](C(N)=O)CSSC[C@H](NC(=O)[C@@H](NC(=O)CNC(=O)[C@@H](N)CC(N)=O)C(C)C)C(=O)N2` [compound 145] (HELM PEPTIDE1{N.G.V.C.C.G.Y.K.L.C.H.A.C.[am]}$PEPTIDE1,PEPTIDE1,4:R3-13:R3|PEPTIDE1,PEPTIDE1,5:R3-10:R3$$$V2.0), the IC50 was 2950 nM.
Same read-out and setting: the figure for `CC(C)C[C@H](NC(=O)[C@H](CC(=O)O)NC(=O)[C@H](CCCCN)NC(=O)[C@@H](N)Cc1c[nH]c2ccccc12)C(=O)N[C@H]1CSSC[C@@H](C(N)=O)NC(=O)[C@@H]2CCCN2C(=O)[C@H](Cc2c[nH]c3ccccc23)NC(=O)[C@@H]2CSSC[C@H](NC1=O)C(=O)NCC(=O)N[C@@H](Cc1ccc(O)cc1)C(=O)N[C@@H](CCCCN)C(=O)N[C@@H](CC(C)C)C(=O)N2` [compound 90] (HELM PEPTIDE1{W.K.D.L.C.C.G.Y.K.L.C.W.P.C.[am]}$PEPTIDE1,PEPTIDE1,5:R3-14:R3|PEPTIDE1,PEPTIDE1,6:R3-11:R3$$$V2.0) is 355 nM; for `CC(C)C[C@@H]1NC(=O)[C@H](CCCCN)NC(=O)[C@H](CCCCN)NC(=O)CNC(=O)[C@@H]2CSSC[C@H](NC1=O)C(=O)N[C@@H](Cc1c[nH]cn1)C(=O)N1CCC[C@H]1C(=O)N[C@H](C(N)=O)CSSC[C@H](NC(=O)[C@@H](NC(=O)CNC(=O)[C@H](CC(N)=O)NC(=O)[C@@H](N)Cc1ccc(O)cc1)C(C)C)C(=O)N2` [compound 201] (HELM PEPTIDE1{Y.N.G.V.C.C.G.K.K.L.C.H.P.C.[am]}$PEPTIDE1,PEPTIDE1,5:R3-14:R3|PEPTIDE1,PEPTIDE1,6:R3-11:R3$$$V2.0) it is 437000 nM.
`CC(C)C[C@@H]1NC(=O)[C@H](CCCCN)NC(=O)[C@H](Cc2ccc(O)cc2)NC(=O)CNC(=O)[C@@H]2CSSC[C@H](NC1=O)C(=O)N[C@@H](Cc1c[nH]c3ccccc13)C(=O)N1CCC[C@H]1C(=O)N[C@H](C(N)=O)CSSC[C@H](NC(=O)[C@@H](NC(=O)CNC(=O)[C@@H](N)CC(N)=O)C(C)C)C(=O)N2` [compound 59] (HELM PEPTIDE1{N.G.V.C.C.G.Y.K.L.C.W.P.C.[am]}$PEPTIDE1,PEPTIDE1,4:R3-13:R3|PEPTIDE1,PEPTIDE1,5:R3-10:R3$$$V2.0): the IC50 was 174 nM.
The same measure, in the same setting: the figure for `CC[C@H](C)[C@H](NC(=O)CNC(=O)[C@@H](N)CC(N)=O)C(=O)N[C@H]1CSSC[C@@H](C(N)=O)NC(=O)[C@@H]2CCCN2C(=O)[C@H](Cc2c[nH]cn2)NC(=O)[C@@H]2CSSC[C@H](NC1=O)C(=O)NCC(=O)N[C@@H](Cc1ccc(O)cc1)C(=O)N[C@@H](CCCCN)C(=O)N[C@@H](CC(C)C)C(=O)N2` [compound 125] (HELM PEPTIDE1{N.G.I.C.C.G.Y.K.L.C.H.P.C.[am]}$PEPTIDE1,PEPTIDE1,4:R3-13:R3|PEPTIDE1,PEPTIDE1,5:R3-10:R3$$$V2.0) is 1410 nM.
